Test results: US5288720A, “Angiotensin II receptor blocking 2,3,6 substituted quinazolinones” (American Cyanamid Company, priority 1993, dated 1994)

Assays:
[1] = test system: ANGIOTENSIN II VASOPRESSOR RESPONSE; assay: AII Challenge: blockade of angiotensin II vasopressor response in conscious SHR; assay type: in vivo, rat (Conscious Male Okamoto-Aoki SHR); settings: SHR n=2, 3 mg/kg i.v.
Description: By administering a compound of this invention to a rat, and then challenging with angiotensin II, a blockage of the vasopressor response is realized.
Conscious Male Okamoto-Aoki SHR, 16-20 weeks old, weighing approximately 330 g are purchased from Charles River Labs (Wilmington, Mass.). Conscious rats are restrained in a supine position with elastic tape. The area at the base of the tail is locally anesthetized by subcutaneous infiltration with 2% procaine. The ventral caudal artery and vein are isolated, and a cannula made of polyethylene (PE) 10-20 tubing (fused together by heat) is passed into the lower abdominal aorta and vena cava, respectively. The cannula is secured, heparinized (1,000 I.U./ml), sealed and the wound is closed. The animals are placed in plastic restraining cages in an upright position. The cannula is attached to a Statham P23Db pressure transducer, and pulsatile blood pressure is recorded to 10-15 minutes with a Gould Brush recorder. (Chan et al., (Drug Development Res., 18:75-94, 1989).
Angiotensin II (human sequence, Sigma Chem. Co., St. Louis, MO) of 0.05 and 0.1 ug/kg i.v. is injected into all rats (predosing response). Then a test compound, vehicle or a known angiotensin II antagonist is administered i.v., i.p. or orally to each set of rats. The two doses of angiotensin II are given to each rat again at 30, 60, 90, 120, 180, 240 and 300 minutes post dosing the compound or vehicle. The vasopressor response of angiotensin II is measured for the increase in systolic blood pressure in mmHg. The percentage of antagonism or blockade of the vasopressor response of angiotensin II by a compound is calculated using the vasopressor response (increase in systolic blood pressure) of angiotensin II of each rat predosing the compound as 100%. A compound is considered active if at 30 mg/kg i.v. it antagonized at least 50% of the response.

Angiotensin II Receptor = biological target: T1, Angiotensin II Receptor (Bos taurus, UniProt P25104); assay: Receptor Binding Assay: Binding of [^125 I](Sar^1,Ile^8)AngII to beef adrenal cortex membranes; settings: 60 min, room temperature
T1 construct: The brownish tissue forming the adrenal cortex is scraped off and finely minced with scissors before homogenization; from tissue; host or cells: beef adrenal cortex, microsomal membranes (100,000×g pellet); fresh glands from a local slaughter house (Maxwell-Cohen)
T1 sequence (P25104 1-359): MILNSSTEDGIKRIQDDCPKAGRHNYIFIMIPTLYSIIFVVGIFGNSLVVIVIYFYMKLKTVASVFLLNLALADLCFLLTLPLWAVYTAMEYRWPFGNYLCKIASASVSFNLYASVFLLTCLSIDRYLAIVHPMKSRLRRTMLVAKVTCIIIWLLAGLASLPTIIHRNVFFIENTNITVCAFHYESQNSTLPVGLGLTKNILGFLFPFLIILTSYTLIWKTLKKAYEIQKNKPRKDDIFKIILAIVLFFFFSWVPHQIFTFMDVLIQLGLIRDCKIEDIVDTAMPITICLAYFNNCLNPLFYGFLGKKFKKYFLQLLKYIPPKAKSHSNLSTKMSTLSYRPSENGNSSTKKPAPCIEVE
Description: Beef adrenals are obtained from a local slaughter house (Maxwell-Cohen). [^125 […]. 2200 Ci/mmole, is purchased from Dupont (NEN®, Boston, Mass.). All unlabeled AngII analogs, Dimethylsulfoxide (DMSO), nucleotides, bovine serum albumin (BSA) are purchased from Sigma Chemical Co., St. Louis, Mo. U.S.A. […] Approximately sixteen (16) to twenty (20) beef adrenal glands are processed as follows: fresh adrenal glands received on crushed ice are cleaned of fatty tissues and the tough membranes encapsulating the glands are removed and discarded. The brownish tissue forming the adrenal cortex is scraped off and finely minced with scissors before homogenization. Care is taken to avoid contamination with medullary tissue during dissection. The scraped cortices are suspended in twenty volumes of an ice-cold buffer medium consisting of 10 mM Tris.HCl (pH 7.4 at 22° C.) and containing 1.0 mM EDTA and 0.2M sucrose. Unless otherwise indicated, all subsequent operations are done at 4° C. […] The homogenate is centrifuged first at low speed (3,000×g) for 10 minutes. […] This P2 pellet is discarded and the liquid phase is carefully decanted off in clean centrifuge tubes and recentrifuged at high speed (100,000×g) for 60 minutes. The translucent final pellet is harvested and combined in a small volume (20-50.0 ml) of 50.0 mM Tris.HCl buffer, pH 7.2. A 100 ul aliquot is withdrawn and the protein content of the preparation is determined by the Lowry's method (Lowry, O. H., Rosebrough, […]. and Randall, R. J., Protein measurement with Folin phenol reagent. J. Biol. Chem., […], 265-275, 1951). The pelleted membrane is reconstituted in 50.0 mM Tris.HCl buffer containing 0.1 mM of phenylmethylsulfonyl fluoride (PMSF) to give approximately a protein concentration of 2.5 mg per ml of tissue suspension. […] Receptor Binding Assay: […] In competition studies, experimental compounds are diluted in dimethylsulfoxide (DMSO) and added in 20 ul to wells before the introduction of tissue membranes. […] Assays are performed in triplicate. The wells are left undisturbed for 60 minutes at room temperature. Following incubation, all wells are harvested at once with a Brandel® Harvester especially designed for a 96 well plate (Brandel® Biomedical Research & Development Labs. Inc., Gaithersburg, Md., U.S.A.). The filter discs are washed with 10×1.0 ml of cold 0.9% NaCl to remove unbound ligand. Presoaking the filter sheet in 0.1% polyethyleneimine in normal saline (PEI/Saline) greatly reduces the radioactivity retained by the filter blanks. This method is routinely used. The filters are removed from the filter grid and counted in a Parkard® Cobra Gamma Counter for 1 minutes. (Packard Instrument Co., Downers Grove, Ill, U.S.A.). The binding data are analyzed by the non-linear interactive "LUNDON-1" program (LUNDON SOFTWARE Inc., Cleveland, Ohio U.S.A.).

[2] = AII 0.05 mcg/kg IV, 30 min post dose
[3] = AII 0.05 mcg/kg IV, 60 min post dose
[4] = AII 0.05 mcg/kg IV, 90 min post dose
[5] = AII 0.05 mcg/kg IV, 120 min post dose
[6] = AII 0.05 mcg/kg IV, 180 min post dose
[7] = AII 0.05 mcg/kg IV, 240 min post dose
[8] = AII 0.05 mcg/kg IV, 300 min post dose
[9] = AII 0.1 mcg/kg IV, 30 min post dose
[10] = AII 0.1 mcg/kg IV, 60 min post dose
[11] = AII 0.1 mcg/kg IV, 90 min post dose
[12] = AII 0.1 mcg/kg IV, 120 min post dose
[13] = AII 0.1 mcg/kg IV, 180 min post dose
[14] = AII 0.1 mcg/kg IV, 240 min post dose
[15] = AII 0.1 mcg/kg IV, 300 min post dose

SMILES	% Inhibition of AII vasopressor response [1, 2] [%]	Average Change (systolic blood pressure response to AII) [1, 2] [mmHg]	% Inhibition of AII vasopressor response [1, 3] [%]	Average Change (systolic blood pressure response to AII) [1, 3] [mmHg]	% Inhibition of AII vasopressor response [1, 4] [%]	Average Change (systolic blood pressure response to AII) [1, 4] [mmHg]	% Inhibition of AII vasopressor response [1, 5] [%]	Average Change (systolic blood pressure response to AII) [1, 5] [mmHg]	% Inhibition of AII vasopressor response [1, 6] [%]	Average Change (systolic blood pressure response to AII) [1, 6] [mmHg]	% Inhibition of AII vasopressor response [1, 7] [%]	Average Change (systolic blood pressure response to AII) [1, 7] [mmHg]	% Inhibition of AII vasopressor response [1, 8] [%]	Average Change (systolic blood pressure response to AII) [1, 8] [mmHg]	% Inhibition of AII vasopressor response [1, 9] [%]	Average Change (systolic blood pressure response to AII) [1, 9] [mmHg]	% Inhibition of AII vasopressor response [1, 10] [%]	Average Change (systolic blood pressure response to AII) [1, 10] [mmHg]	% Inhibition of AII vasopressor response [1, 11] [%]	Average Change (systolic blood pressure response to AII) [1, 11] [mmHg]	further results
CCCCc1nc2ccc(C(C)(O)C3CCN(C)C3=O)cc2c(=O)n1Cc1ccc(-c2ccccc2-c2nn[nH]n2)cc1 (single isomer, unassigned; isomer 2) [Example 48, 2-Butyl-6-1-hydroxy-1(1-methyl-2-oxo-3-pyrrolidinyl)ethyl]-3-[[2'-(1H-tetrazol-5-yl)[1,1'-biphenyl]-4-yl]methyl-4(3H)-quinazolinone isomer 2]	92	3.5	89	5	83	7.5	97	1.5	69	13.5	68	14	71	12.5	95	25	100	0	95	2.5	% Inhibition of AII vasopressor response [1, 12]: 84%; Average Change (systolic blood pressure response to AII) [1, 12]: 8.5 mmHg; % Inhibition of AII vasopressor response [1, 13]: 57%; Average Change (systolic blood pressure response to AII) [1, 13]: 22.5 mmHg; % Inhibition of AII vasopressor response [1, 14]: 52%; % Inhibition of AII vasopressor response [1, 15]: 57%; Average Change (systolic blood pressure response to AII) [1, 15]: 22.5 mmHg; IC50 (Angiotensin II Receptor): 43 nM
CCCCc1nc2ccc(C(C)(O)C3CCN(C)C3=O)cc2c(=O)n1Cc1ccc(-c2ccccc2-c2nn[nH]n2)cc1 (single isomer, unassigned; isomer 1) [Example 47, 2-Butyl-6-1-hydroxy-1-(1-methyl-2-oxo-3-pyrrolidinyl)ethyl]-3-[[2'-[1H(tetrazol-5yl)-[1,1'-biphenyl]-4-yl]methyl-4(3H)-quinazolinone isomer 1]	75	10	75	10	63	15	69	12.5	75	10	38	25	29	28.5	73	11.5	65	15	76	10	% Inhibition of AII vasopressor response [1, 12]: 82%; Average Change (systolic blood pressure response to AII) [1, 12]: 7.5 mmHg; % Inhibition of AII vasopressor response [1, 13]: 59%; Average Change (systolic blood pressure response to AII) [1, 13]: 17.5 mmHg; % Inhibition of AII vasopressor response [1, 14]: 29%; Average Change (systolic blood pressure response to AII) [1, 14]: 30 mmHg; % Inhibition of AII vasopressor response [1, 15]: 18%; Average Change (systolic blood pressure response to AII) [1, 15]: 35 mmHg; IC50 (Angiotensin II Receptor): 40 nM
